Measurements taken from patent publication US7812170B2, “Insecticides” (Syngenta Crop Protection, Inc., priority 2004, dated 2010).

What was measured:
Assay type in all cases: in vivo
Spodoptera littoralis = experiment: Activity against Spodoptera littoralis (sprayed soya plants); details: 72 h, 400 ppm active ingredient, sprayed young soya plants, 1st instar caterpillars, 3 days, read-out: percentage reduction in the population and in the feeding damage (% activity)
Description: (§1) Activity Against Spodoptera littoralis Young soya plants are sprayed with an aqueous emulsion spray mixture comprising 400 ppm of active ingredient and, after the spray coating has dried on, populated with 10 caterpillars (1st instar) of Spodoptera littoralis and introduced into a plastic container. 3 days later, the percentage reduction in the population and in the feeding damage (% activity) are determined by comparing the number of dead caterpillars and the feeding damage between the treated and untreated plants.

Myzus persicae = experiment: Activity against Myzus persicae (foliar application); details: 400 ppm active ingredient, spray on infected pea seedlings, 20°, 3 and 6 days, read-out: percentage reduction in the population (% activity)
Description: Activity Against Myzus persicae (Foliar Application) Pea seedlings are infected with Myzus persicae, subsequently sprayed with a spray mixture comprising 400 ppm of active ingredient and then incubated at 20°. 3 and 6 days later, the percentage reduction in the population (% activity) is determined by comparing the number of dead aphids between the treated and untreated plants.

Diabrotica balteata = experiment: Activity against Diabrotica balteata (sprayed maize seedlings); details: 144 h, 400 ppm active ingredient, 2nd instar larvae, 6 days, read-out: percentage reduction in the population (% activity)
Description: Activity Against Diabrotica balteata Maize seedlings are sprayed with an aqueous emulsion spray mixture comprising 400 ppm of active ingredient and, after the spray coating has dried on, populated with 10 larvae (2nd instar) of Diabrotica balteata and introduced into a plastic container. 6 days later, the percentage reduction in the population (% activity) is determined by comparing the number of dead larvae between the treated and untreated plants.

Heliothis virescens = experiment: Activity against Heliothis virescens (foliar application); details: 144 h, 400 ppm active ingredient, sprayed young soya plants, 1st instar caterpillars, 6 days, read-out: percentage reduction in the population and in the feeding damage (% activity)
Description: as §1, with “Against Heliothis virescens (Foliar Application)” for “Against Spodoptera littoralis”, “of Heliothis virescens” for “of Spodoptera littoralis”, “container. 6” for “container. 3”

Plutella xylostella = experiment: Activity against Plutella xylostella (sprayed cabbage plants); details: 72 h, 400 ppm active ingredient, sprayed young cabbage plants, 3rd instar caterpillars, 3 days, read-out: percentage reduction in the population and in the feeding damage (% activity)
Description: as §1, with “Plutella xylostella” for “Spodoptera littoralis”, “cabbage” for “soya”, “(3rd” for “(1st”

Measured: inhibition at 400 ppm

CNC(=O)c1cc2ccccc2c(Br)c1NC(=O)c1cc(C(F)(F)F)nn1-c1ncccc1Cl [Compound T7.1]
> 80%: all assays above

CNC(=O)c1cc2ccccc2c(Cl)c1NC(=O)c1cc(C(F)(F)F)nn1-c1ncccc1Cl [Compound T1.1]
> 80%: all assays above
